Test results as given in ChEMBL document CHEMBL3779769, “Indole-2-carboxylic acid derived mono and bis 1,4-disubstituted 1,2,3-triazoles: Synthesis, characterization and evaluation of anticancer, antibacterial, and DNA-cleavage activities” (Bioorg Med Chem Lett, 2016).
Converted amounts (≈) assume the structure as drawn. Each block holds one molecule with its values, some of them ahead of it. The source made the active and inactive calls. The calls are words filed in the database; no cut-off is given here.

Tests used:
Proteus vulgaris = assay: Antibacterial activity against Proteus vulgaris MTCC 1771 by broth dilution method; assay type: functional
Escherichia coli [1] = assay: Antibacterial activity against Escherichia coli MTCC 443 by broth dilution method; assay type: functional
Staphylococcus aureus = assay: Antibacterial activity against Staphylococcus aureus MTCC 96 by broth dilution method; assay type: functional
HEK293 = assay: Cytotoxicity against HEK293 cells assessed as cell viability after 48 hrs by MTT assay; assay type: cell-based; conditions: Homo sapiens, HEK293, 48 h
Bacillus subtilis = assay: Antibacterial activity against Bacillus subtilis MTCC 441 by broth dilution method; assay type: functional
MCF7 = assay: Cytotoxicity against human MCF7 cells assessed as cell viability after 48 hrs by MTT assay; assay type: functional, cell-based; conditions: MCF7, 48 h
HeLa = assay: Cytotoxicity against human HeLa cells assessed as cell viability after 48 hrs by MTT assay; assay type: functional, cell-based
Escherichia coli [2] = assay: Induction of DNA cleavage of Escherichia coli pUC18 at 100 ug/ml by agarose gel electrophoresis
Mus musculus [3] = assay: Effect on RBC level in Swiss albino mouse xenografted with mouse EAC cells at 10 mg/kg, ip administered for 9 days measured on day 14 (reference value: 3.01+/- 0.75 10^6/mm3); assay type: functional, Ehrlich
[4] = Anticancer activity against mouse EAC cells xenografted in Swiss albino mouse assessed as percent increase in life span at 5 mg/kg, ip administered for 9 days measured for 30 days; assay type: functional; conditions: Ehrlich
[5] = Anticancer activity against mouse EAC cells xenografted in Swiss albino mouse assessed as mean survival time at 10 mg/kg, ip administered for 9 days measured for 30 days (reference value: 12.8 +/- 0.7 days); assay type: functional, Ehrlich
[6] = Anticancer activity against mouse EAC cells xenografted in Swiss albino mouse assessed as tumor volume at 5 mg/kg, ip administered for 9 days measured after 14 days (reference value: 12.15 +/- 0.5 ml); assay type: functional, Ehrlich
Mus musculus [7] = assay: Effect on RBC level in Swiss albino mouse xenografted with mouse EAC cells at 5 mg/kg, ip administered for 9 days measured on day 14 (reference value: 3.01+/- 0.75 10^6/mm3); assay type: functional, Ehrlich
[8] = Anticancer activity against mouse EAC cells xenografted in Swiss albino mouse assessed as viable tumor cell count at 10 mg/kg, ip administered for 9 days measured after 14 days by trypan blue incorporation method (reference value: 7.30 +/- 0.6 10^7/ml); assay type: functional, Ehrlich
Mus musculus [9] = assay: Effect on SGPT level in Swiss albino mouse xenografted with mouse EAC cells at 10 mg/kg, ip administered for 9 days measured on day 14 (reference value: 55.3 +/- 0.52 IU/L); assay type: functional, Ehrlich
Mus musculus [10] = assay: Effect on total protein level in Swiss albino mouse xenografted with mouse EAC cells at 10 mg/kg, ip administered for 9 days measured on day 14 (reference value: 7.84 +/- 0.36 […]); assay type: functional, Ehrlich
[11] = Anticancer activity against mouse EAC cells xenografted in Swiss albino mouse assessed as viable tumor cell count at 5 mg/kg, ip administered for 9 days measured after 14 days by trypan blue incorporation method (reference value: 7.30 +/- 0.6 10^7/ml); assay type: functional, Ehrlich
Mus musculus [12] = assay: Effect on WBC level in Swiss albino mouse xenografted with mouse EAC cells at 10 mg/kg, ip administered for 9 days measured on day 14 (reference value: 22.07 +/- 0.11 10^3/mm3); assay type: functional, Ehrlich
Mus musculus [13] = assay: Effect on SGPT level in Swiss albino mouse xenografted with mouse EAC cells at 5 mg/kg, ip administered for 9 days measured on day 14 (reference value: 55.3 +/- 0.52 IU/L); assay type: functional, Ehrlich
Mus musculus [14] = assay: Effect on body weight in Swiss albino mouse xenografted with mouse EAC cells at 5 mg/kg, ip administered for 9 days (reference value: 13.57 +/- 0.4 g); assay type: functional, Ehrlich
Mus musculus [15] = assay: Effect on WBC level in Swiss albino mouse xenografted with mouse EAC cells at 5 mg/kg, ip administered for 9 days measured on day 14 (reference value: 22.07 +/- 0.11 10^3/mm3); assay type: functional, Ehrlich
[16] = Anticancer activity against mouse EAC cells xenografted in Swiss albino mouse assessed as percent increase in life span at 10 mg/kg, ip administered for 9 days measured for 30 days; assay type: functional; conditions: Ehrlich
Mus musculus [17] = assay: Effect on SGOT level in Swiss albino mouse xenografted with mouse EAC cells at 10 mg/kg, ip administered for 9 days measured on day 14 (reference value: 116.04 +/- 0.14 IU/L); assay type: functional, Ehrlich
Mus musculus [18] = assay: Effect on body weight in Swiss albino mouse xenografted with mouse EAC cells at 10 mg/kg, ip administered for 9 days (reference value: 13.57 +/- 0.4 g); assay type: functional, Ehrlich
Mus musculus [19] = assay: Effect on hemoglobin level in Swiss albino mouse xenografted with mouse EAC cells at 10 mg/kg, ip administered for 9 days measured on day 14 (reference value: 5.67 +/- 0.8 g%); assay type: functional, Ehrlich
[20] = Anticancer activity against mouse EAC cells xenografted in Swiss albino mouse assessed as mean survival time at 5 mg/kg, ip administered for 9 days measured for 30 days (reference value: 12.8 +/- 0.7 days); assay type: functional, Ehrlich
[21] = Anticancer activity against mouse EAC cells xenografted in Swiss albino mouse assessed as packed cell volume at 5 mg/kg, ip administered for 9 days measured after 14 days […] (reference value: 2.62 +/- 0.5 ml); assay type: functional, Ehrlich
Mus musculus [22] = assay: Effect on SGOT level in Swiss albino mouse xenografted with mouse EAC cells at 5 mg/kg, ip administered for 9 days measured on day 14 (reference value: 116.04 +/- 0.14 IU/L); assay type: functional, Ehrlich
Mus musculus [23] = assay: Effect on hemoglobin level in Swiss albino mouse xenografted with mouse EAC cells at 5 mg/kg, ip administered for 9 days measured on day 14 (reference value: 5.67 +/- 0.8 g%); assay type: functional, Ehrlich
[24] = Anticancer activity against mouse EAC cells xenografted in Swiss albino mouse assessed as tumor volume at 10 mg/kg, ip administered for 9 days measured after 14 days (reference value: 12.15 +/- 0.5 ml); assay type: functional, Ehrlich
[25] = Anticancer activity against mouse EAC cells xenografted in Swiss albino mouse assessed as packed cell volume at 10 mg/kg, ip administered for 9 days measured after 14 days […] (reference value: 2.62 +/- 0.5 ml); assay type: functional, Ehrlich
Mus musculus [26] = assay: Effect on total protein level in Swiss albino mouse xenografted with mouse EAC cells at 5 mg/kg, ip administered for 9 days measured on day 14 (reference value: 7.84 +/- 0.36 […]); assay type: functional, Ehrlich
Escherichia coli [27] = assay: Induction of DNA cleavage of Escherichia coli pUC18 at 50 ug/ml by agarose gel electrophoresis

SMILES: COc1ccc(-n2cc(COC(=O)c3cc4ccccc4n3Cc3cn(-c4ccc(OC)cc4)nn3)nn2)cc1
MIC (Proteus vulgaris): 9.38 µg/mL (≈ 17.5 µM)
MIC (Escherichia coli [1]): > 150 µg/mL
MIC (Staphylococcus aureus): > 150 µg/mL
IC50 (HEK293): 43.9 µM
MIC (Bacillus subtilis): > 150 µg/mL
IC50 (MCF7): 100 µM
IC50 (HeLa): 56.1 µM

SMILES: CN[C@@H]1[C@H](O[C@H]2[C@H](O[C@H]3[C@H](O)[C@@H](O)[C@H](N=C(N)N)[C@@H](O)[C@@H]3N=C(N)N)O[C@@H](C)[C@]2(O)C=O)O[C@@H](CO)[C@H](O)[C@H]1O [STREPTOMYCIN]
MIC (Proteus vulgaris): 3.12 µg/mL (≈ 5.37 µM)
MIC (Escherichia coli [1]): 6.25 µg/mL (≈ 10.7 µM)
MIC (Staphylococcus aureus): 6.25 µg/mL (≈ 10.7 µM)
MIC (Bacillus subtilis): 6.25 µg/mL (≈ 10.7 µM)

SMILES: CCCCc1ccc(-n2cc(COC(=O)c3cc4ccccc4n3Cc3cn(-c4ccc(CCCC)cc4)nn3)nn2)cc1
MIC (Proteus vulgaris): > 150 µg/mL
MIC (Escherichia coli [1]): > 150 µg/mL
MIC (Staphylococcus aureus): > 150 µg/mL
IC50 (HEK293): > 200 µM
MIC (Bacillus subtilis): > 150 µg/mL
IC50 (MCF7): 66.9 µM
IC50 (HeLa): 42.8 µM

SMILES: O=C(OCc1cn(-c2ccccc2Br)nn1)c1cc2ccccc2n1Cc1cn(-c2ccccc2Br)nn1
MIC (Proteus vulgaris): > 150 µg/mL
MIC (Escherichia coli [1]): > 150 µg/mL
MIC (Staphylococcus aureus): 2.34 µg/mL (≈ 3.7 µM)
IC50 (HEK293): 12.1 µM
MIC (Bacillus subtilis): 1.17 µg/mL (≈ 1.85 µM)
Activity (Escherichia coli [2]): Active
IC50 (MCF7): 64.1 µM
IC50 (HeLa): 35.9 µM

SMILES: O=C(OCc1cn(-c2cccc(C(F)(F)F)c2)nn1)c1cc2ccccc2n1Cc1cn(-c2cccc(C(F)(F)F)c2)nn1
Activity (Mus musculus [3]): 4.12 ×10⁶ /mm3
ILS at 5 mg/kg [4]: 14.2%
MST [5]: 22.56 days
MIC (Proteus vulgaris): > 150 µg/mL
MIC (Escherichia coli [1]): 1.17 µg/mL (≈ 1.92 µM)
Activity [6]: 9.32 mL
Activity (Mus musculus [7]): 3.78 ×10⁶ /mm3
Activity [8]: 5.31 ×10⁷ /ml
Activity (Mus musculus [9]): 45.18 IU/L
MIC (Staphylococcus aureus): > 150 µg/mL
Activity (Mus musculus [10]): 5.96 mg/dL
Activity [11]: 6.27 ×10⁷ /ml
Activity (Mus musculus [12]): 16.32 ×10³ /mm3
Activity (Mus musculus [13]): 53.7 IU/L
Activity (Mus musculus [14]): 11.83 g
Activity (Mus musculus [15]): 19.32 ×10³ /mm3
ILS at 10 mg/kg [16]: 34.1%
IC50 (HEK293): 9.08 µM
Activity (Mus musculus [17]): 98.41 IU/L
Activity (Mus musculus [18]): 9.7 g
Activity (Mus musculus [19]): 9.3 g%
MST [20]: 17.23 days
MIC (Bacillus subtilis): 2.34 µg/mL (≈ 3.83 µM)
Activity [21]: 1.63 mL
Activity (Mus musculus [22]): 109.03 IU/L
Activity (Mus musculus [23]): 7.32 g%
IC50 (MCF7): 13.3 µM
IC50 (HeLa): 9.89 µM
Activity [24]: 5.08 mL
Activity [25]: 0.86 mL
Activity (Mus musculus [26]): 7.02 mg/dL

SMILES: Cc1cc(C)cc(-n2cc(COC(=O)c3cc4ccccc4n3Cc3cn(-c4cc(C)cc(C)c4)nn3)nn2)c1
MIC (Proteus vulgaris): > 150 µg/mL
MIC (Escherichia coli [1]): > 150 µg/mL
MIC (Staphylococcus aureus): > 150 µg/mL
IC50 (HEK293): 50.2 µM
MIC (Bacillus subtilis): > 150 µg/mL
IC50 (MCF7): 45.2 µM
IC50 (HeLa): 28.8 µM

SMILES: Cc1cccc(-n2cc(COC(=O)c3cc4ccccc4n3Cc3cn(-c4cccc(C)c4C)nn3)nn2)c1C
MIC (Proteus vulgaris): > 150 µg/mL
MIC (Escherichia coli [1]): > 150 µg/mL
MIC (Staphylococcus aureus): > 150 µg/mL
IC50 (HEK293): 14.1 µM
MIC (Bacillus subtilis): > 150 µg/mL
IC50 (MCF7): > 200 µM
IC50 (HeLa): > 200 µM

Second part, led by results:

MIC (Proteus vulgaris): > 150 µg/mL
MIC (Escherichia coli [1]): > 150 µg/mL
MIC (Staphylococcus aureus): 4.69 µg/mL (≈ 13.5 µM)
MIC (Bacillus subtilis): > 150 µg/mL
SMILES: Cc1cccc(-n2cc(COC(=O)c3cc4ccccc4[nH]3)nn2)c1C
IC50 (HEK293): 15.3 µM
IC50 (MCF7): 17.1 µM
IC50 (HeLa): 30.3 µM

MIC (Proteus vulgaris): 4.69 µg/mL (≈ 13.5 µM)
MIC (Escherichia coli [1]): > 150 µg/mL
MIC (Staphylococcus aureus): > 150 µg/mL
MIC (Bacillus subtilis): > 150 µg/mL
SMILES: COc1ccc(-n2cc(COC(=O)c3cc4ccccc4[nH]3)nn2)cc1
IC50 (HEK293): 42.5 µM
IC50 (MCF7): 16.2 µM
IC50 (HeLa): 16.1 µM

MIC (Proteus vulgaris): > 150 µg/mL
MIC (Escherichia coli [1]): 2.34 µg/mL (≈ 6.07 µM)
MIC (Staphylococcus aureus): > 150 µg/mL
MIC (Bacillus subtilis): 4.69 µg/mL (≈ 12.1 µM)
Activity (Escherichia coli [2]): Active
SMILES: O=C(OCc1cn(-c2cccc(C(F)(F)F)c2)nn1)c1cc2ccccc2[nH]1
IC50 (HEK293): 32.7 µM
IC50 (MCF7): 16.5 µM
IC50 (HeLa): 11.7 µM

MIC (Proteus vulgaris): > 150 µg/mL
MIC (Escherichia coli [1]): > 150 µg/mL
MIC (Staphylococcus aureus): > 150 µg/mL
MIC (Bacillus subtilis): > 150 µg/mL
Activity (Escherichia coli [2]): Active
SMILES: Cc1cc(C)cc(-n2cc(COC(=O)c3cc4ccccc4[nH]3)nn2)c1
IC50 (HEK293): 12.5 µM
IC50 (MCF7): 30.5 µM
IC50 (HeLa): 30.2 µM

Activity (Escherichia coli [27]): Active
MIC (Proteus vulgaris): > 150 µg/mL
MIC (Escherichia coli [1]): > 150 µg/mL
MIC (Staphylococcus aureus): > 150 µg/mL
MIC (Bacillus subtilis): > 150 µg/mL
SMILES: CCCCc1ccc(-n2cc(COC(=O)c3cc4ccccc4[nH]3)nn2)cc1
IC50 (HEK293): 24.2 µM
IC50 (MCF7): 28.8 µM
IC50 (HeLa): > 200 µM

MIC (Proteus vulgaris): > 150 µg/mL
MIC (Escherichia coli [1]): > 150 µg/mL
MIC (Staphylococcus aureus): > 150 µg/mL
MIC (Bacillus subtilis): > 150 µg/mL
SMILES: O=C(OCc1cn(-c2ccccc2Br)nn1)c1cc2ccccc2[nH]1
IC50 (HEK293): > 200 µM
IC50 (MCF7): 38.8 µM
IC50 (HeLa): 17.3 µM
